# Where a SMILES comes first, the peptide text is derived from it. [ ]: non-standard residue; d: D form. dDab = NCC[C@@H](N)C(=O)O; Orn = NCCC[C@H](N)C(=O)O; Dab = NCC[C@H](N)C(=O)O
# Columns and labels:
# [1] = parameters: species or system cynomolgus monkeys; details: cynomolgus monkey, in vivo
# Protocol: (§1) In the 28-day dose inhalation study in CD-1 mice (20-minute snout only exposure), the mean estimated achieved doses of 0.8, 3.5 and 7.2 mg/kg/day murepavadin free base were administered. […] There were no other findings considered test item related.
# [2] = system: Pseudomonas aeruginosa isolates from respiratory samples of people with cystic fibrosis; experiment: Planktonic susceptibility (MIC) of CF isolates; type: cell-based
# Excerpt: (§2) To perform biofilm tests with the Calgary device, fifty-three Pseudomonas aeruginosa isolates from respiratory samples of people with cystic fibrosis were selected among the 414 Pseudomonas aeruginosa of the iABC-collection (Ekkelenkamp M B et al., Antimicrob. Agents Chemother. 2019, 64, 1-7). A representative number of isolates from Northern Ireland, Spain, the Netherlands, and Australia were chosen, including different morphotyes: 18 smooth, 11 mucoid, 11 rough, 10 metallic, and 3 small colony variants. As control strains, the PAO (most commonly used strain for research on this ubiquitous and metabolically versatile opportunistic pathogen, Klockgether J et al., Journal of Bacteriology 2010, 192, 1113-1121) and its hypermutator derivative, PAO mutS strains were used (Oliver A et al., Antimicrob. Agents Chemother. 2004, 48, 4226-33).
# [3] = system: PA34 (smooth phenotype); type: cell-based, Pseudomonas aeruginosa
# Protocol: (§3) Two CF isolates, PA34 (smooth phenotype) and PA40 (mucoid phenotype), and the 2 reference strains PAO and PAO mutS were tested with the BioFlux device. None of the clinical strains were hypermutators.
# (§4) This assay was performed as previously described but with minimal variations (Benoit M R et al., Appl. Environ. Microbiol. 2010, 76, 4136-4142) (FIG. 3). Briefly, a 0.5 McFarland culture was transferred to a flat-bottom 96-well microtiter plate (Nalge Nunc International, Rochester, New York, USA). Bacterial biofilm was formed around the pegs of a modified polystyrene microtiter lid. This lid with pegs was immersed into a growth plate and incubated for 20 h at 37° C. After rinsing the pegs 3 times in saline solution they were placed onto the antimicrobial in BBL™ Mueller-Hinton II cation-adjusted broth (MHB) (Becton, Dickinson and Company, Sparks, MD, USA) and incubated for 20 h at 37° C. […] After this incubation, the biofilm was recovered centrifuging (800 RPM/10 min) the peg lid in an antibiotic-free MHB filled-microtiter plate. The minimal biofilm inhibitory concentration (MBIC) was calculated after measuring the optical density (OD) (450 nm) before and after 6-hour incubation. Biofilm growth was defined as a mean OD difference of ≥0.05. […] The minimal biofilm eradication concentration (MBEC) was defined as the lowest concentration that prevents visible growth in the biofilm recovery medium after 18 h of the microtiter plate incubation (Ceri H et al., J. Clin. Microbiol. 1999, 37, 1771; Macià M D et al., Enferm. Infecc. Microbiol. Clin. 2018, 36, 375-381).
# (§5) Planktonic and biofilm susceptibility of the strains established in the Calgary device and used in the BioFlux device are described in Table 12.
# [4] = system: PA40 (mucoid phenotype); type: cell-based, Pseudomonas aeruginosa
# Protocol: as §3, §4, §5
# [5] = system: PAO; type: cell-based, Pseudomonas aeruginosa
# Protocol: as §3, §4, §5
# [6] = system: PAO mutS; type: cell-based, Pseudomonas aeruginosa
# Protocol: as §3, §4, §5
# [7] = system: Pseudomonas aeruginosa isolates from respiratory samples of people with cystic fibrosis growing in biofilms; type: cell-based
# Excerpt: (§6) Two types of assays, an open and a closed system, were used to evaluate the in vitro activity on biofilms. The closed or static system based on the Calgary device (Diez-Aguilar M et al., Antimicrob Agents Chemother. 2018, 62, e01650-17, doi: 10.1128/AAC.01650-17, Moskowitz S M et al., J. Clin. Microbiol. 2004, 42, 1915-1922) analyzes biofilm formation in the wells of microtiter plates and is suitable for high-throughput analysis, obtaining pharmacodynamics (PD) parameters, while the open or dynamic system using the BioFlux device (Benoit M R et al., Appl. Environ. Microbiol. 2010, 76, 4136-4142) better resembles the in vivo conditions.
# as §2, §4
# MBIC and the MBEC are used to determine the anti-biofilm antibiotic in vitro efficacy. MBIC is the lowest concentration at which there is no time-dependent increase in the mean number of biofilm viable cells comparing an early with a later exposure time, while the MBEC indicates the eradication (partly or completely) of biofilm viable cells (Thieme L et al., Biol. Proced. Online 2019, 21, 1-5).
# [8] = system: Pseudomonas aeruginosa biofilms (PAO, PAO mutS, PA34, PA40); experiment: Biofilm assays performed by the BioFlux microfluidic open system; type: cell-based; details: both open and closed biofilm-testing systems
# Excerpt: as §6, with “conditions. […]” for “conditions.”
# Several biofilms were simultaneously developed in a 48 wells plate in the BioFlux 200 system, following an adapted protocol from Benoit M R et al. (Appl. Environ. Microbiol. 2010, 76, 4136-4142). […] Biofilm images were taken using a Nikon Eclipse Ti microscope (Nikon, Tokyo, Japan) and analyzed with the ImageJ program (Java-based image processing program, National Institute of Health, Bethesda, Maryland, USA and Laboratory for Optical and Computational Instrumentation, University of Wisconsin, Wisconsin, USA). The mean percentage of intensity of red fluorescence corresponding to dead cells within the biofilm is represented in a bar chart as black bar (FIG. 4). […]
# [9] = system: PA34 (smooth phenotype); experiment: microbe, parasite or virus in culture; type: cell-based, Pseudomonas aeruginosa
# Protocol: as §3, §5
# [10] = system: PA40 (mucoid phenotype); experiment: microbe, parasite or virus in culture; type: cell-based, Pseudomonas aeruginosa
# Protocol: as §3, §5
# [11] = system: PAO; experiment: microbe, parasite or virus in culture; type: cell-based, Pseudomonas aeruginosa
# Protocol: as §3, §5
# [12] = system: PAO, PAO mutS, PA40, PA34; experiment: Planktonic susceptibility of all strains used in the BioFlux device; type: cell-based, Pseudomonas aeruginosa; details: all tested strains susceptible
# Protocol: as §3, §5
# [13] = system: clinical Pseudomonas aeruginosa isolates; experiment: Mouse lung infection model (PK-PD); type: in vivo
# [14] = 28-day dose inhalation study in CD-1 mice; type: in vivo
# Protocol: as §1
# [15] = biofilm, Calgary device, CF isolates
smiles,measurement,setting,value
"CC[C@H](C)[C@@H]1NC(=O)[C@H](Cc2c[nH]c3ccccc23)NC(=O)[C@H]([C@@H](C)O)NC(=O)[C@@H]2CCCN2C(=O)[C@H]2CCCN2C(=O)[C@H](CO)NC(=O)[C@H](C)NC(=O)[C@H](CCN)NC(=O)[C@H](CCN)NC(=O)[C@H](Cc2c[nH]c3ccccc23)NC(=O)[C@H](CCN)NC(=O)[C@@H](CCN)NC(=O)[C@H](CCCN)NC(=O)[C@H](CCN)NC1=O [murepavadin, cyclo(-Thr-Trp-Ile-Dab-Orn-^DDab-Dab-Trp-Dab-Dab-Ala-Ser-^DPro-Pro-)] (cyclo(TWI[Dab][Orn][dDab][Dab]W[Dab][Dab]AS[dP]P); ring closure inferred)",microscopic test item related findings at the tracheal bifurcation,[1],not considered adverse
same,MIC50,[2],≤ 0.5 mg/L
same,MIC90,[2],1 mg/L
same,MIC range,[2],≤0.5 to 32 mg/L
same,MBEC,[3],4 mg/L
same,MBIC,[3],2 mg/L
same,MBEC,[4],8 mg/L
same,MBIC,[4],2 mg/L
same,MBEC,[5],8 mg/L
same,MBIC,[5],4 mg/L
same,MBEC,[6],256 mg/L
same,MBIC,[6],32 mg/L
same,MBEC50,[7],16 mg/L
same,MBEC90,[7]; [15],64 mg/L
same,MBIC50,[7]; [15],4 mg/L
same,MBIC90,[7]; [15],32 mg/L
same,MBIC range,[7]; [15],≤0.5 to 64 mg/L
same,activity against biofilms of Pseudomonas aeruginosa,[8],displayed activity
same,MIC,[9],0.06 mg/L
same,MIC,[10],0.06 mg/L
same,MIC,[11],0.06 mg/L
same,MIC,[12],0.12 mg/L
same,reduction of bacterial burden,"[13]; IT doses of 0.075-0.625 mg/kg, three out of four clinical isolates",> 2 log10
same,achieved dose required to attain the ELF AUC exposure,[13]; inhalation administration,0.18 mg/kg
same,achieved dose required to attain the ELF AUC exposure,[13]; intra-tracheal (i.t.) administration,0.10 mg/kg
same,mean AUC exposure in ELF sufficient to achieve a 1-login reduction of bacterial burden,"[13]; subcutaneous injection, 15 clinical Pseudomonas aeruginosa isolates",12.23 h·mg/L
same,No Observed Adverse Effect Level (NOAEL),"[14]; 28-day inhalation, 0.8, 3.5 and 7.2 mg/kg/day, adverse pathology in the upper respiratory tract",no No Observed Adverse Effect Level (NOAEL) could be established
same,systemic toxicity,"[14]; 28-day inhalation, 20-minute snout only exposure, up to 7.2 mg/kg/day murepavadin free base",no evidence of systemic toxicity

# — patent US20240100121A1, “COMPOSITIONS OF A BETA-HAIRPIN PEPTIDOMIMETIC AND AEROSOL DOSAGE FORMS THEREOF” (priority 2020, published 2024)
